Results reported in publication PMC8900824, “Interactions between 2′-fluoro-(carbamoylpyridinyl)deschloroepibatidine analogues and acetylcholine-binding protein inform on potent antagonist activity against nicotinic receptors” (Acta Crystallographica. Section D, Structural Biology, 2022).
Values joined by “and” are separate entries in the source; they are usually repeats but may differ in a detail not shown here. Identical values can stand only once. Like-named read-outs stand apart in the source and are kept apart here.

Experiments:
AcAChBP [1] = molecular target: T1, AcAChBP (Aplysia californica, UniProt Q8WSF8, A155V/A60V); assay: Kd determination by biolayer interferometry (BLI) on immobilized AcAChBP; format: binding; conditions: 25°C, values with standard errors
T1 construct: made in house; host or cells: Spodoptera frugiperda (Sf9) cells, baculovirus (Bac-to-Bac)
Description: The K d values of compounds 1–6 were determined using an Octet RED system (Forté-Bio). AcAChBP (0.5 mg ml^−1 in buffer A) was immobilized on Ni^2+–NTA sensors for 600 s, followed by the removal of non-immobilized protein (600 s) and baseline stabilization (120 s). Association and dissociation measurements were obtained at 25°C for six concentrations of each compound (1.7–410 nM) diluted in buffer A plus 1% DMSO. BLI assays were conducted with a baseline measurement in buffer (60 s), an association measurement in the well containing the compound (120 s) and a dissociation measurement in buffer (120 s). Data processing and analysis were performed with Octet RED Data Analysis version 7.1 (Forté-Bio), where the background response of immobilized AcAChBP in buffer was subtracted.

α4β2 nAChR = conditions: cited from earlier work
homomeric α7 nAChR = conditions: ref Ondachi et al., 2016, cited from earlier work; for agonist/antagonist effect on α7 nAChR: homomeric α7
AcAChBP [2] = molecular target: T1, AcAChBP; conditions: read-out: AcAChBP, Kd; isothermal titration calorimetry; ref Rucktooa et al., 2012; cited from earlier work
recombinant α4β2 nAChR = conditions: recombinant receptor, electrophysiology; ref Ondachi et al., 2016; cited from earlier work
[3] = system: nicotine-induced antinociception; conditions: in vivo; ref Ondachi et al., 2016; cited from earlier work
AcAChBP [4] = molecular target: T1, AcAChBP; set-up: method as in Hansen et al., 2005; conditions: read-out: AcAChBP, Kd; tryptophan fluorescence-quenching assay; ref Hansen et al., 2005; cited from earlier work
recombinant α3β4 nAChR = conditions: recombinant receptor, electrophysiology; ref Ondachi et al., 2016; cited from earlier work
[5] = [3H]-epibatidine competition assay, values with standard errors, ref Ondachi et al., 2016

T1 sequence (Q8WSF8 entry or part of it A60V/A155V): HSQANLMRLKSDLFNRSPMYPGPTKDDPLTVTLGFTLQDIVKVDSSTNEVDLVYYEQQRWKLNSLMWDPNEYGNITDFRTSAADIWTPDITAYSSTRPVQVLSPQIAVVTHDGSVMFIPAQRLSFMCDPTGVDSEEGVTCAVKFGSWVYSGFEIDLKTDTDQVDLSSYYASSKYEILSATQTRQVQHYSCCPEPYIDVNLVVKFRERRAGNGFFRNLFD

| SMILES | Kd (AcAChBP [1]) | Ki (α4β2 nAChR; [5]) | agonist activity on α4β2 nAChR (recombinant α4β2 nAChR) | agonist/antagonist effect on α7 nAChR (homomeric α7 nAChR) | other results |
| --- | --- | --- | --- | --- | --- |
| NC(=O)c1ccc(-c2cc(C3CC4CCC3N4)cnc2F)cn1 (centres unmarked) [Compound 4] | 33 ± 0.08 nM | 0.07 ± 0.002 nM | – | – | subtype selectivity α4β2 over α7 (homomeric α7 nAChR): selective for α4β2 over α7 |
| CN1CCC[C@H]1c1cccnc1 [Nicotine] | – | – | – | – | Kd (AcAChBP [2]): 835 nM |
| NC(=O)c1ccc(-c2cc(C3CC4CCC3N4)cnc2F)nc1 (centres unmarked) [Compound 3] | 29 ± 0.05 nM | 0.94 ± 0.07 nM | mixed partial agonists | agonists | – |
| NC(=O)c1ccc(-c2cc(C3CC4CCC3N4)cnc2F)cc1 (centres unmarked) [Compound 1] | 9.8 ± 0.03 nM | – | mixed partial agonists | agonists | Ki (α4β2 nAChR): 0.12 ± 0.02 nM |
| NC(=O)c1ccnc(-c2cc(C3CC4CCC3N4)cnc2F)c1 (centres unmarked) [Compound 2] | 60 ± 0.14 nM | 0.28 ± 0.01 nM | – | only an antagonist | AcAChBP, Kd (AcAChBP [1]): lowest affinity; antagonism of the antinociceptive action of nicotine [3]: a potency approaching that of varenicline |
| c1cnc2cc3c(cc2n1)[C@@H]1CNC[C@H]3C1 [Varenicline] | – | – | – | – | Kd (AcAChBP [2]): 342 nM |
| NC(=O)c1cncc(-c2cc(C3CC4CCC3N4)cnc2F)c1 (centres unmarked) [Compound 5] | ~30 nM and 30 nM | 0.28 ± 0.03 nM | – | – | subtype selectivity α4β2 over α7 (homomeric α7 nAChR): selective for α4β2 over α7 |
| Clc1ccc([C@H]2C[C@@H]3CC[C@H]2N3)cn1 [Epibatidine, (1R,2R,4S)-2-(6-chloro-3-pyridinyl)-7-azabicyclo[2.2.1]heptane] | – | – | full agonist | – | Kd (AcAChBP [4]): 14 nM; agonist activity on α3β4 nAChR (recombinant α3β4 nAChR): full agonist |
| NC(=O)c1cc(-c2cc(C3CC4CCC3N4)cnc2F)ccn1 (centres unmarked) [Compound 6] | 9.8 ± 0.01 nM | 0.67 ± 0.28 nM | – | – | – |
